Experiment [1] has as its target T1, Recombinant human His-tagged Trim24-PHD-bromodomain (Homo sapiens, UniProt O15164).
T1 construct: Recombinant human His-tagged Trim24-PHD-bromodomain (produced in-house); made in house
T1 sequence (O15164 824-1006 limits assumed): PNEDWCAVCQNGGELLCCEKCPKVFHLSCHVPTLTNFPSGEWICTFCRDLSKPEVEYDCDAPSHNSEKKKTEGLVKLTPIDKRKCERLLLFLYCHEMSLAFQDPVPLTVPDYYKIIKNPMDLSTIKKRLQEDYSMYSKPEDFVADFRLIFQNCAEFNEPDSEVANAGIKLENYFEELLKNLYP
In words: Trim24 AlphaScreen Assay. It counts as binding. Conditions: 5 nM Trim24 protein, 15 nM biotinylated H3K23ac (1-33aa) peptide. A digest of the protocol:
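AlphaScreen read-out after 2 h with streptavidin donor and Ni-chelate acceptor beads at 10 ug/mL each, following 1 h room-temperature incubation of compound, His-tagged PHD-bromodomain protein and biotin-H3K23ac (1-33aa) peptide in Hepes pH 7.5 buffer with NaCl and Triton X-100. Signals normalised between no-compound and no-protein wells; IC50 from four-parameter logistic curves.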
(Bead proximity is the source of the signal in Alpha formats.)

In a further experiment the target is T2, BRPF2 (Homo sapiens, UniProt O95696).
T2 construct: purchased DiscoveRx (BROMOscan); host or cells: T7 phage in E. coli host derived from BL21
T2 sequence (O95696 562-666 limits assumed): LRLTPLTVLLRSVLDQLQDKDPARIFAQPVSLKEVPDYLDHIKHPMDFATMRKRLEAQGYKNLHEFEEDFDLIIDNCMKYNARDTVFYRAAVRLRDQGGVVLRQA
In words: BROMOscan DiscoveRx Binding Constant Assay (BRPF2). The settings on record: qPCR readout. The text has this: (§1) Compounds that bind the bromodomain active site and directly (sterically) or indirectly (allosterically) prevent bromodomain binding to the immobilized ligand, will reduce the amount of protein captured on the solid support (Panels A & B). […] Screening “hits” are identified by measuring the amount of bromodomain captured in test versus control samples by using a quantitative, precise and ultra-sensitive qPCR method that detects the associated DNA label. In a similar manner, dissociation constants (Kd's) for test compound-bromodomain interactions are calculated by measuring the amount of bromodomain captured on the solid support as a function of the test compound concentration.
(§2) Bromodomain assays. T7 phage strains displaying bromodomains were grown in parallel in 24-well blocks in an E. coli host derived from the BL21 strain. E. coli were grown to log-phase and infected with T7 phage from a frozen stock (multiplicity of infection=0.4) and incubated with shaking at 32° C. until lysis (90-150 minutes). The lysates were centrifuged (5,000×g) and filtered (0.2 μm) to remove cell debris. Streptavidin-coated magnetic beads were treated with biotinylated small molecule or acetylated peptide ligands for 30 minutes at room temperature to generate affinity resins for bromodomain assays. The liganded beads were blocked with excess biotin and washed with blocking buffer (SeaBlock (Pierce), 1% BSA, 0.05% Tween 20, 1 mM DTT) to remove unbound ligand and to reduce non-specific phage binding. […] Test compounds were prepared as 1000× stocks in 100% DMSO and subsequently diluted 1:10 in monoethylene glycol (MEG) to create stocks at 100× the screening concentration (resulting stock solution is 10% DMSO/90% MEG). The compounds were then diluted directly into the assays such that the final concentration of DMSO and MEG were 0.1% and 0.9%, respectively. All reactions were performed in polystyrene 96-well plates in a final volume of 0.135 ml.
(§3) The beads were then re-suspended in elution buffer (lx PBS, 0.05% Tween 20, 2 μM nonbiotinylated affinity ligand) and incubated at room temperature with shaking for 30 minutes. The bromodomain concentration in the eluates was measured by qPCR.
(§4) An 11-point 3-fold serial dilution of each test compound was prepared in 100% DMSO at 1000× final test concentration. This serial is then diluted to 100× in ethylene glycol and subsequently diluted to 1× in the assay (final DMSO concentration=0.1%, Ethylene glycol concentration=0.9%). […] If the initial Kd determined was <0.169 nM (the lowest concentration tested), the measurement was repeated with a serial dilution starting at a lower top concentration.
(§5) Binding constants (Kd's) were calculated with a standard dose-response curve using the Hill equation: Response=Background+Signal−Background 1+(Kd Hill Slope/DoseHill Slope) The Hill Slope was set to −1. Curves were fitted using a non-linear least square fit with the Levenberg-Marquardt algorithm.
On the technique in general: In qPCR the cycle at which signal appears reflects the starting amount.

In the next experiment the target is T3, BRPF3 (Homo sapiens, UniProt Q9ULD4).
T3 construct: purchased DiscoveRx (BROMOscan); host or cells: T7 phage in E. coli host derived from BL21
T3 sequence (Q9ULD4 589-693 limits assumed): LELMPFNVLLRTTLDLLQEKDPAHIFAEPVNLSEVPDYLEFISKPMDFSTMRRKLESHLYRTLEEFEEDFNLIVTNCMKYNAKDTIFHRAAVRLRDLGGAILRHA
In words: BROMOscan DiscoveRx Binding Constant Assay (BRPF3). Conditions: qPCR readout.
Source text: as §1, §2, §3, §4, §5

For a further experiment, the target named is T4, BRPF1 (Homo sapiens, UniProt P55201).
T4 construct: purchased DiscoveRx (BROMOscan); host or cells: T7 phage in E. coli host derived from BL21
T4 sequence (P55201 628-732 limits assumed): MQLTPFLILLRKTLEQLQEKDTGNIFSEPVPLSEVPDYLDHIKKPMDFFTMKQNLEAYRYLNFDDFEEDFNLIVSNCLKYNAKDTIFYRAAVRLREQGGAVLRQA
In words: BROMOscan DiscoveRx Binding Constant Assay (BRPF1). The settings on record: qPCR readout.
Source text: as §1, §2, §3, §4, §5

The target in the next experiment is T5, TRIM24 (Homo sapiens, UniProt O15164).
T5 construct: purchased DiscoveRx (BROMOscan); host or cells: T7 phage in E. coli host derived from BL21
T5 sequence (O15164 899-1004 limits assumed): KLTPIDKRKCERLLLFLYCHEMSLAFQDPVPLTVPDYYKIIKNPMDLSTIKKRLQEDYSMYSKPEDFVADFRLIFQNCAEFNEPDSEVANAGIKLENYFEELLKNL
Nature of the experiment: BROMOscan DiscoveRx Binding Constant Assay (TRIM24). Conditions: qPCR readout.
Source text: as §1, §2, §3, §4, §5

Bounds are passed on as bounds.

What is called IC50 is the concentration at which inhibition is half-maximal. What is called Kd is the equilibrium constant for the complex coming apart. Low values mean tighter binding, high ones weaker binding.

Regarding `CCCOc1cc(OCCCCCCN)cc(Oc2cc3c(cc2NS(=O)(=O)c2cn(C)cn2)n(C)c(=O)n3C)c1` [Example 8, N-(6-(3-((6-aminohexyl)oxy)-5-propoxyphenoxy)-1,3-dimethyl-2-oxo-2,3-dihydro-1H-benzo[d]imidazol-5-yl)-1-methyl-1H-imidazole-4-sulfonamide 2,2,2-trifluoroacetate], the IC50 in experiment [1] fell in the range of 1 to 10 nM. The Kd at BRPF2 was 1 to 10 nM; at BRPF3, 11 to 100 nM; at BRPF1 it was 1 to 10 nM; at TRIM24, below 1 nM.
For the compound `Cc1nc(S(=O)(=O)Nc2cc3c(cc2Oc2cccc(OCC(C)C)c2)n(C)c(=O)n3C)cn1C` [Example 45, N-(6-(3-isobutoxyphenoxy)-1,3-dimethyl-2-oxo-2,3-dihydro-1H-benzo[d]imidazol-5-yl)-1,2-dimethyl-1H-imidazole-4-sulfonamide], the IC50 in experiment [1] fell in the range of 10 to 100 nM. In addition, the Kd lay in the range of 11 to 100 nM on BRPF2, 11 to 100 nM at BRPF3, 11 to 100 nM on BRPF1 and 1 to 10 nM on TRIM24.
`COCCCOc1cccc(Oc2cc3c(cc2NS(=O)(=O)c2cn(C)c(C)n2)n(C)c(=O)n3C)c1` [Example 46, N-(6-(3-(3-methoxypropoxy)phenoxy)-1,3-dimethyl-2-oxo-2,3-dihydro-1H-benzo[d]imidazol-5-yl)-1,2-dimethyl-1H-imidazole-4-sulfonamide]: the IC50 in experiment [1] is 100 to 1000 nM. In addition, the Kd on BRPF2 is 11 to 100 nM; on BRPF3, above 100 nM; on BRPF1 it was 11 to 100 nM; at TRIM24, 11 to 100 nM.
Turning to `CCCOc1cccc(Oc2cc3c(cc2NS(=O)(=O)c2ccc(OC)c(OC)c2)n(C)c(=O)n3C)c1` [Example 110, N-(1,3-dimethyl-2-oxo-6-(3-propoxyphenoxy)-2,3-dihydro-1H-benzo[d]imidazol-5-yl)-3,4-dimethoxybenzenesulfonamide], in experiment [1], the IC50 lay in the range of 10 to 100 nM. The Kd is 11 to 100 nM at BRPF2, 11 to 100 nM at BRPF3, 1 to 10 nM at BRPF1 and 1 to 10 nM on TRIM24.
As to `Cn1c(=O)n(C)c2cc(Oc3cccc(OCC(F)(F)F)c3)c(NS(=O)(=O)c3cccnc3)cc21` [Example 125, N-(1,3-dimethyl-2-oxo-6-(3-(2,2,2-trifluoroethoxy)phenoxy)-2,3-dihydro-1H-benzo[d]imidazol-5-yl)pyridin-3-sulfonamide], the IC50 in experiment [1] is 10 to 100 nM. Besides, the Kd on BRPF2 fell in the range of 1 to 10 nM; at BRPF3, 11 to 100 nM; at BRPF1 it was 1 to 10 nM; at TRIM24 it was 1 to 10 nM.

The values above are taken from US20160060260A1, “BROMODOMAIN INHIBITORS FOR TREATING DISEASE” (Board of Regents, The University of Texas System, priority 2014, published 2016).
